Assay results: patent US8940909B2, “Indicator platform” (Biosynth AG, priority 2009, dated 2015)

Assays:
[1] = Reaction of MDAB with active signalogens (aldol donor properties); settings: for Aldol product / color formed with MDAB: presence of MDAB, absence of oxygen; for Efficiency as aldol donor with MDAB: compared with 6-chloro-1H-indol-3-ol (aS3)
enteric bacterial cells = test: MDAB staining of bacterial colonies with indicators I4a and I5a on Tryptic Soy Agar, aerobic and anaerobic; assay type: cell-based; settings: for colonial morphology, aerobic conditions / colonial morphology, microaerobic (anaerobic) conditions: Salmonella manhattan (b-gal −), TSAYE with 40 mg/100 ml of indicator
Experimental: Tryptic Soy Agar (TSA) with yeast extract (0.6%) was used as the base plating medium. The media were autoclaved at 121° C. for 15 minutes and placed in a 50° C. water bath to cool. Indicators were added to the basal medium at a final concentration of 40 mg/100 ml (from 80 mg/ml stock solutions in DMF). Over night cultures of enteric bacterial cells in Brain Heart Infusion Broth were streaked onto the plates and incubated at 35° C. for 24 hours under aerobic and anaerobic conditions. After incubation, the colonial morphologies on the plates were recorded (Table III).
Weak staining was observed occasionally due to residual oxygen (micro-anaerobic conditions). Under aerobic conditions indigo (IN-stains) generally dominated the effects of MDAB staining. For example indicator system I4a/MDAB stained colonies violet under anaerobic but indigo blue under aerobic conditions.

[2] = test system: Listeria monocytogenes (4b) 290; test: IO staining of colonies of beta-D-galactosidase positive/negative bacteria (Table IVb); assay type: cell-based; settings: Listeria monocytogenes (4b) strain 290, b-gal −; 24 h on Nutrient Agar, 150 mg/l indicator, 100 mg/l IPTG; on C: Color of colonies: key: −: absent; +/−: weak; +: strong; ++: very strong; on F: Fluorescence of colonies: key: −: absent; +/−: weak; +: strong; ++: very strong
[3] = test system: Staphylococcus saprophyticus 273; test: as above; assay type: cell-based; settings: Staphylococcus saprophyticus strain 273, b-gal +; 24 h on Nutrient Agar, 150 mg/l indicator, 100 mg/l IPTG; on G: Growth of colonies: key: −: absent; +/−: weak; +: strong; ++: very strong
Salmonella illa 73 = test: as above; assay type: cell-based; settings: Salmonella illa strain 73, b-gal +; 24 h on Nutrient Agar, 150 mg/l indicator, 100 mg/l IPTG; further: key: −: absent; +/−: weak; +: strong; ++: very strong
Enterobacter cloacae 245 = test: as above; assay type: cell-based; settings: Enterobacter cloacae strain 245, b-gal +; 24 h on Nutrient Agar, 150 mg/l indicator, 100 mg/l IPTG; on C: Color of colonies: key: −: absent; +/−: weak; +: strong; ++: very strong; on G: Growth of colonies: key: −: absent; +/−: weak; +: strong; ++: very strong
Escherichia coli 270 = test: as above; assay type: cell-based; settings: Escherichia coli strain 270, b-gal +; 24 h on Nutrient Agar, 150 mg/l indicator, 100 mg/l IPTG; on C: Color of colonies: key: −: absent; +/−: weak; +: strong; ++: very strong; on G: Growth of colonies: key: −: absent; +/−: weak; +: strong; ++: very strong
Staphylococcus aureus 2 = test: as above; assay type: cell-based; settings: Staphylococcus aureus strain 2, b-gal −, 24 h on Nutrient Agar, 150 mg/l indicator, 100 mg/l IPTG; on F: Fluorescence of colonies: key: −: absent; +/−: weak; +: strong; ++: very strong
Escherichia coli = test: IN and IO staining of bacterial colonies under anaerobic conditions; assay type: cell-based
Experimental: Nutrient Agar plates containing 150 mg/l of various substrates and 100 mg/l IPTG were inoculated with Escherichia coli. Plates were put in an anaerobic jar (Anaerojar, Oxoid), an AnaeroGen sachet (Oxoid) was added, the jar was closed and incubated for 24 hours at 37° C.
IN staining cannot be used under anaerobic conditions.

Citrobacter freundii 181 = test: IO staining of colonies of beta-D-galactosidase positive/negative bacteria (Table IVb); assay type: cell-based; settings: Citrobacter freundii strain 181, b-gal +; 24 h on Nutrient Agar, 150 mg/l indicator, 100 mg/l IPTG; on C: Color of colonies: key: −: absent; +/−: weak; +: strong; ++: very strong; on G: Growth of colonies: key: −: absent; +/−: weak; +: strong; ++: very strong
[4] = test system: Pseudomonas aeruginosa 168; test: as above; assay type: cell-based; settings: Pseudomonas aeruginosa strain 168, b-gal −, 24 h on Nutrient Agar, 150 mg/l indicator, 100 mg/l IPTG; on C: Color of colonies: key: −: absent; +/−: weak; +: strong; ++: very strong; on G: Growth of colonies: key: −: absent; +/−: weak; +: strong; ++: very strong
[5] = test system: Escherichia coli (O157:H7) 60; test: as above; assay type: cell-based; settings: Escherichia coli (O157:H7) strain 60, b-gal +; 24 h on Nutrient Agar, 150 mg/l indicator, 100 mg/l IPTG
Aeromonas hydrophila 292 = test: as above; assay type: cell-based; settings: Aeromonas hydrophila strain 292, b-gal +; 24 h on Nutrient Agar, 150 mg/l indicator, 100 mg/l IPTG; on G: Growth of colonies: key: −: absent; +/−: weak; +: strong; ++: very strong
[6] = test system: Enterobacter aerogenes 242; test: as above; assay type: cell-based; settings: Enterobacter aerogenes strain 242, b-gal +; 24 h on Nutrient Agar, 150 mg/l indicator, 100 mg/l IPTG; on C: Color of colonies: key: −: absent; +/−: weak; +: strong; ++: very strong; on G: Growth of colonies: key: −: absent; +/−: weak; +: strong; ++: very strong
Shigella sonnei 133 = test: as above; assay type: cell-based; settings: Shigella sonnei strain 133, b-gal +/−; 24 h on Nutrient Agar, 150 mg/l indicator, 100 mg/l IPTG; on C: Color of colonies: key: −: absent; +/−: weak; +: strong; ++: very strong; on G: Growth of colonies: key: −: absent; +/−: weak; +: strong; ++: very strong
[7] = test system: Streptococcus agalactiae 195; test: as above; assay type: cell-based; settings: Streptococcus agalactiae strain 195, b-gal −; 24 h on Nutrient Agar, 150 mg/l indicator, 100 mg/l IPTG; on C: Color of colonies: key: −: absent; +/−: weak; +: strong; ++: very strong; on F: Fluorescence of colonies: key: −: absent; +/−: weak; +: strong; ++: very strong
[8] = test system: Salmonella enteritidis 43; test: as above; assay type: cell-based; settings: Salmonella enteritidis strain 43, b-gal −; 24 h on Nutrient Agar, 150 mg/l indicator, 100 mg/l IPTG; further: key: −: absent; +/−: weak; +: strong; ++: very strong
[9] = test system: Shigella dysenteriae Serovar 1 131; test: as above; assay type: cell-based; settings: Shigella dysenteriae Serovar 1 strain 131, b-gal +/−; 24 h on Nutrient Agar, 150 mg/l indicator, 100 mg/l IPTG
[10] = test system: Staphylococcus intermedius 31; test: as above; assay type: cell-based; settings: Staphylococcus intermedius strain 31, b-gal +; 24 h on Nutrient Agar, 150 mg/l indicator, 100 mg/l IPTG
[11] = test system: Klebsiella pneumoniae 164; test: as above; assay type: cell-based; settings: Klebsiella pneumoniae strain 164, b-gal +; 24 h on Nutrient Agar, 150 mg/l indicator, 100 mg/l IPTG; on C: Color of colonies: key: −: absent; +/−: weak; +: strong; ++: very strong; on G: Growth of colonies: key: −: absent; +/−: weak; +: strong; ++: very strong
Salmonella bongori 81 = test: as above; assay type: cell-based; settings: Salmonella bongori strain 81, b-gal +; 24 h on Nutrient Agar, 150 mg/l indicator, 100 mg/l IPTG; on C: Color of colonies: key: −: absent; +/−: weak/variable; +: strong; on G: Growth of colonies: key: −: absent; +/−: weak; +: strong; ++: very strong
[12] = test system: Yersinia enterocolitica 175; test: as above; assay type: cell-based; settings: Yersinia enterocolitica strain 175, b-gal +/−; 24 h on Nutrient Agar, 150 mg/l indicator, 100 mg/l IPTG; on G: Growth of colonies: key: −: absent; +/−: weak; +: strong; ++: very strong
Serratia marcescens 40 = test: as above; assay type: cell-based; settings: Serratia marcescens strain 40, b-gal +; 24 h on Nutrient Agar, 150 mg/l indicator, 100 mg/l IPTG; on G: Growth of colonies: key: −: absent; +/−: weak; +: strong; ++: very strong
Shigella boydii 135 = test: as above; assay type: cell-based; settings: Shigella boydii strain 135, b-gal −; 24 h on Nutrient Agar, 150 mg/l indicator, 100 mg/l IPTG; further: key: −: absent; +/−: weak; +: strong; ++: very strong
Escherichia coli 61 = test: as above; assay type: cell-based; settings: Escherichia coli strain 61, b-gal +; 24 h on Nutrient Agar, 150 mg/l indicator, 100 mg/l IPTG; on C: Color of colonies: key: −: absent; +/−: weak; +: strong; ++: very strong; on G: Growth of colonies: key: −: absent; +/−: weak; +: strong; ++: very strong
Bacillus subtilis 65 = test: as above; assay type: cell-based; settings: Bacillus subtilis strain 65, b-gal −; 24 h on Nutrient Agar, 150 mg/l indicator, 100 mg/l IPTG; on C: Color of colonies: key: −: absent; +/−: weak; +: strong; ++: very strong; on F: Fluorescence of colonies: key: −: absent; +/−: weak; +: strong; ++: very strong
[13] = Nutrient Agar plates, anaerobically incubated with E. coli

Nc1c[nH]c2ccccc12 [aS6, 1H-Indol-3-amine]
Aldol product / color formed with MDAB [1]: Formation of the expected hetero aldol product was not observed | Aldol product / color formed with MDAB ([1]; listed as 3-aminoindole): failed to yield any aldol product

Oc1c[nH]c2cc(Cl)c(Br)cc12 [aS5, 5-Bromo-6-chloro-1H-indol-3-ol]
Efficiency as aldol donor with MDAB [1]: far more effective

Oc1c[nH]c2ccc(Br)c(Cl)c12 [aS4, 5-Bromo-4-chloro-1H-indol-3-ol]
Efficiency as aldol donor with MDAB [1]: far more effective

COc1cc(N(C)C)ccc1C=O [MDAB, 2-methoxy-4-(N,N-dimethylamino)benzaldehyde]
Toxic effect on microbial cell growth (enteric bacterial cells; Indox/MDAB staining of microbial colonies): no toxic effect

Sc1c[nH]c2ccccc12 [aS7, 1H-Indol-3-thiol]
Aldol product / color formed with MDAB [1]: the expected violet color appeared only under strongly acidic conditions | Aldol product / color formed with MDAB ([1]; listed as 3-mercaptoindole): did produce the characteristic pink dye (BI7) under strongly acidic conditions

5-Bromo-6-chloro-1H-indol-3-yl-beta-D-galactopyranoside [Indicator I5a]
colonial morphology, aerobic conditions (enteric bacterial cells; aR MDAB, equivalents 1:1): Cream colored colonies | colonial morphology, microaerobic (anaerobic) conditions (enteric bacterial cells; aR MDAB, equivalents 1:1): Cream colored colonies | colonial morphology, aerobic conditions (enteric bacterial cells; no aR): Cream colored colonies | colonial morphology, microaerobic (anaerobic) conditions (enteric bacterial cells; no aR): Cream colored colonies

O=C(c1ccccc1)c1ccccc1-n1cc(O[C@@H]2O[C@H](CO)[C@H](O)[C@H](O)[C@H]2O)c2c(Cl)c(Br)ccc21 [Indicator I22a, 1-(2-Benzoylphenyl)-5-bromo-4-chloro-1H-indol-3-yl-beta-D-galactopyranoside]
C: Color of colonies [2]: − | F: Fluorescence of colonies [2]: − | G: Growth of colonies [2]: − | C: Color of colonies [3]: − | F: Fluorescence of colonies [3]: − | G: Growth of colonies [3]: − | C: Color of colonies (Salmonella illa 73): − | F: Fluorescence of colonies (Salmonella illa 73): − | G: Growth of colonies (Salmonella illa 73): + | C: Color of colonies (Enterobacter cloacae 245): + | F: Fluorescence of colonies (Enterobacter cloacae 245): +/− | G: Growth of colonies (Enterobacter cloacae 245): + | C: Color of colonies (Escherichia coli 270): + | F: Fluorescence of colonies (Escherichia coli 270): +/− | G: Growth of colonies (Escherichia coli 270): + | F: Fluorescence of colonies (Staphylococcus aureus 2): − | G: Growth of colonies (Staphylococcus aureus 2): − | C: Color of colonies (Staphylococcus aureus 2; footnote 2: S. aureus natural color): − | Localization of stain under anaerobic conditions (Escherichia coli; E. coli, anaerobic, 24 hours at 37° C.): perfect localization | C: Color of colonies (Escherichia coli; [13]): o-r | D: Diffusion around colonies (Escherichia coli; [13]): − | G: Growth of colonies (Escherichia coli; [13]): + | I: Intensity of color (Escherichia coli; [13]): + | L: Localization on colonies (Escherichia coli; [13]): ++ | S: Size of colonies (Escherichia coli; [13]): 0.5 mm | C: Color of colonies (Citrobacter freundii 181): + | F: Fluorescence of colonies (Citrobacter freundii 181): +/− | G: Growth of colonies (Citrobacter freundii 181): + | C: Color of colonies [4]: − | G: Growth of colonies [4]: + | F: Fluorescence of colonies ([4]; footnote 1: blue autofluorescence): +^1 | C: Color of colonies [5]: + | F: Fluorescence of colonies [5]: +/− | G: Growth of colonies [5]: + | C: Color of colonies (Aeromonas hydrophila 292): +/− | F: Fluorescence of colonies (Aeromonas hydrophila 292): +/− | G: Growth of colonies (Aeromonas hydrophila 292): + | C: Color of colonies [6]: + | F: Fluorescence of colonies [6]: +/− | G: Growth of colonies [6]: + | C: Color of colonies (Shigella sonnei 133): + | F: Fluorescence of colonies (Shigella sonnei 133): +/− | G: Growth of colonies (Shigella sonnei 133): + | C: Color of colonies [7]: − | F: Fluorescence of colonies [7]: − | G: Growth of colonies [7]: − | C: Color of colonies [8]: − | F: Fluorescence of colonies [8]: − | G: Growth of colonies [8]: + | C: Color of colonies [9]: − | F: Fluorescence of colonies [9]: − | G: Growth of colonies [9]: + | C: Color of colonies [10]: − | F: Fluorescence of colonies [10]: − | G: Growth of colonies [10]: − | C: Color of colonies [11]: + | F: Fluorescence of colonies [11]: +/− | G: Growth of colonies [11]: + | C: Color of colonies (Salmonella bongori 81): +/− | F: Fluorescence of colonies (Salmonella bongori 81): − | G: Growth of colonies (Salmonella bongori 81): + | C: Color of colonies [12]: − | F: Fluorescence of colonies [12]: − | G: Growth of colonies [12]: + | C: Color of colonies (Serratia marcescens 40): + | F: Fluorescence of colonies (Serratia marcescens 40): +/− | G: Growth of colonies (Serratia marcescens 40): + | C: Color of colonies (Shigella boydii 135): − | F: Fluorescence of colonies (Shigella boydii 135): − | G: Growth of colonies (Shigella boydii 135): + | C: Color of colonies (Escherichia coli 61): + | F: Fluorescence of colonies (Escherichia coli 61): +/− | G: Growth of colonies (Escherichia coli 61): + | C: Color of colonies (Bacillus subtilis 65): − | F: Fluorescence of colonies (Bacillus subtilis 65): − | G: Growth of colonies (Bacillus subtilis 65): −

CN(C)c1ccc(C=O)cc1 [DAB, 4-(N,N-Dimethyl)aminobenzaldehyde]
Formation of BI-stains when used to replace MDAB (enteric bacterial cells; all conditions tested): did not produce any BI-stains
